Patent US11357748B2, “Methods for treating mendelian disorders of the epigenetic machinery” (THE JOHNS HOPKINS UNIVERSITY, priority 2014, dated 2022)
“Also recorded” adds a separate entry of the source.

What was measured:
[1] = system: DCX positive cells in the GCL (neurogenesis); test: Doublecortin (DCX) expression in the GCL (neurogenesis) after oral AR-42; format: in vivo, mouse
Excerpt: Kmt2d^+/βGeo mice, also named Mll2Gt^(RRt024) Byg, were acquired from Bay Genomics (University of California). All experimental mice were on a mixed C57BL/6J and 129/SvEv background. Expected Mendelian ratios were observed when heterozygous animals were bred to wild-type. In heterozygous crosses, however, there was uniform embryonic lethality of homozygotes by ED 12, the earliest developmental stage assayed. For treatment with AR-42, mice were orally gavaged daily with drug (Selleck Chemicals, Houston, Tex.) solubilized in vehicle (0.5% methylcellulose, 0.1% Tween-80, water) or with vehicle alone. Drug delivery information was kindly provided by Drs. Chen and Kulp from Ohio State University (Huang et al. (2011) Mol. Pharmacol. 79:197-20619). Drug was administered for 14 days and mice were sacrificed on day 15. Morris water maze testing was initiated at day 7 and a dose of 10 mg/kg/day was used for these studies. For quantification of DCX positive cells, doses of 0, 5, 10 and 25 mg/kg/day were used. Genotyping was performed using primers B-GeoF-([…]; SEQ ID NO: 1) and B-GeoR-([…]; SEQ ID NO: 2) that are specific for the targeted allele and TcrdF-([…]; SEQ ID NO: 3) and TcrdR-([…]; SEQ ID NO: 4) that control for sufficient DNA concentration. Real-time PCR using the same primers allows discrimination between the heterozygous and homozygous state for the targeted allele. Maxillary protrusion was evaluated by ten investigators blinded to genotype and they were asked to rate maxillary protrusion on radiographs as either large (2) or small (1). […] All experiments were performed using mouse protocols approved by the Animal Care and Use Committee of Johns Hopkins University School of Medicine. The mouse protocols used for this study are in accordance with the guidelines used by the NIH for mouse care and handling.
Every 6th brain section was selected and then blocked with 5% Bovine Serum Albumin (BSA) at room temperature followed by incubation with primary antibodies overnight at 4° C. Secondary antibodies were then applied for 1 hour at room temperature, after which sections were mounted onto microscope slides with Vectamount with DAPI (Vector Laboratories, Burlingame, Calif.). Primary antibodies included Doublecortin (DCX) (SC-8066, Santa Cruz Biotechnology, Dallas, Tex., 1:200 goat), trimethylated H3K4 (9727L, Cell Signaling Technology, Beverly, Mass., 1:500 rabbit), and Kmt2d H-300 (SC-292359, Santa Cruz Biotechnology, Dallas, Tex., 1:500 rabbit). Non-specific binding was not observed when sections were sequentially exposed to serum (or IgG when appropriate) from the same species as the primary antibody for each experiment (i.e. rabbit for KMT2D and H3K4me3 and goat for doublecortin), followed by the secondary antibody used for KMT2D and H3K4me3 (anti-rabbit) or doublecortin (anti-goat, FIG. 29).
The area of both the GCL and DCX+ cells was measured using the NS elements 2.0 software (Nikon, Tokyo, JPN). Normalized DCX area was calculated by measuring the DCX+ area of the GCL and setting the baseline (Kmt2d^+/+) fraction to 1. A Student t-test with significance value set at P<0.05 was used for comparison of DCX+ area referenced to GCL area between genotypes and treatment arms.

Klf10 expression = test: Real-time PCR of Kmt2d target gene Klf10 in spleen cells; format: in vivo, mouse; conditions: AR-42 treatment (10 mg/kg/day); FIG. 26
Description: Real-time PCR was performed using Kmt2d-specific probes for exons 20 and 52 (Mm_02600438 and Mm_01717664, respectively) from TaqMan® Gene Expression Assays (Life Technologies, Carlsbad, Calif.). For a comparison of transfection efficiencies for indicator constructs in transient transfection studies, real-time PCR was performed using SYBR Green Real-Time PCR Master Mix (Life Technologies, Carlsbad, Calif.) and primers IND-F-([…]; SEQ ID NO: 5) and IND-R-([…]; SEQ ID NO: 6) that are specific for the H3K4 methylation indicator. For expression analysis for KMT2D target gene KLF10, real-time PCR was performed using Klfl0-specific expression assay (Mm00449812_m1) from TaqMan® Gene Expression Assays (Life Technologies, Carlsbad, Calif.).

CC(C)[C@H](C(=O)Nc1ccc(C(=O)NO)cc1)c1ccccc1 [AR-42, (S)—N-hydroxy-4-(3-methyl-2-phenylbutanamido)benzamide]
DCX expression in the GCL ([1]; 10 mg/kg/day, older (5-6 months) Kmt2d+/βGeo mice, FIG. 24D): improved
difference in normalized DCX expression between mutant and wild-type animals ([1]; 10 mg/kg/day, one to two month old mice): no difference between mutant and wild-type animals
DCX expression in the GCL ([1]; 25 mg/kg/day, Kmt2d+/+ animals, FIG. 24C): reduced DCX expression
DCX expression in the GCL ([1]; 25 mg/kg/day, Kmt2d+/βGeo mice, FIG. 24C): did not improve DCX expression
DCX expression in the GCL ([1]; 25 mg/kg/day, young (1-2 month) and old (5-6 month) Kmt2d+/+ and Kmt2d+/βGeo mice): decreased DCX expression
DCX expression in the GCL ([1]; 5 and 10 mg/kg/day, Kmt2d+/+ (preservation) or Kmt2d+/βGeo (restoration), both age groups): preservation or restoration of DCX expression
postnatal neurogenesis in the granule cell layer of the dentate gyrus (overall statement) ([1]; mouse model of KS, ages 1-2 months and 5-6 months): beneficial effect; also recorded: rescued postnatal neurogenesis
neurogenesis (normalized DCX expression) ([1]; one to two month old Kmt2d+/βGeo mice, 0-10 mg/kg/day, FIG. 25C, 25D): dose-dependent increase in neurogenesis
Klf10 expression in spleen cells of Kmt2d+/βGeo mice (Klf10 expression): normalization of expression of Klf10; also recorded: normalized
